In PubChem BioAssay (NCI) one finds TGI and GI50 data, which are given here for 18 molecules.

Test systems include HCC-2998 colon; HCT-116 colon; NCI/ADR-RES ovarian; HOP-62 NSCLC; MALME-3M melanoma; SK-MEL-2 melanoma; SNB-19 CNS; EKVX NSCLC; SR leukemia; TK-10 renal; HS 578T breast.
What all share (experiment): inhibition of tumour cell growth, NCI panel, 48 h

Structures are written as SMILES. Several values for one entry are separate records, joined by “and”; a condition that tells them apart may be missing. Equal entries are not always repeated.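 Step 1: Grow cells in 96-well plates. Step 2: Expose to compound for 48 hours at 5 concentrations. Step 3: Interpolate endpoints linearly; if unreached, use highest concentration. GI50 = concentration required for 50% inhibition of growth. TGI: total growth inhibition.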 Where only a bound is given, the exact number is not on record here.

With `COCN(CCC1=CCCCC1)C(=O)OC`, the TGI in the assay with HCC-2998 colon, with HCT-116 colon, in the assay on NCI/ADR-RES ovarian, in the assay on HOP-62 NSCLC, in the assay on MALME-3M melanoma and with SK-MEL-2 melanoma was greater than 100 µM throughout. The TGI in the assay on SNB-19 CNS, with EKVX NSCLC, with SR leukemia, with TK-10 renal and with HS 578T breast was greater than 100 µM in each case.
For `CC1=NNC(N)=N/C1=C\C(Sc1ccc(Cl)cc1)c1ccc([N+](=O)[O-])cc1` (configuration not stated), the TGI in the assay on HCC-2998 colon, in the assay with HCT-116 colon, in the assay with NCI/ADR-RES ovarian, with HOP-62 NSCLC, with MALME-3M melanoma and in the assay with SK-MEL-2 melanoma was greater than 100 µM each time. The TGI in the assay with SNB-19 CNS, in the assay with EKVX NSCLC, in the assay with SR leukemia, in the assay on TK-10 renal and in the assay on HS 578T breast was greater than 100 µM in each case.
For `O=C1C(CN2CCCCC2)CCC1CN1CCCCC1` (configuration not stated), the TGI in the assay with HCC-2998 colon was greater than 62.5 µM; in the assay on HCT-116 colon, 49.5 µM; in the assay with NCI/ADR-RES ovarian it was 64.2 µM; in the assay on HOP-62 NSCLC, greater than 100 µM; with MALME-3M melanoma it was 49 µM; with SK-MEL-2 melanoma, 52.6 µM. Besides, the TGI with SNB-19 CNS was greater than 100 µM; in the assay with EKVX NSCLC, greater than 100 µM; with SR leukemia, 3.75 µM; in the assay on TK-10 renal, 37 µM; in the assay on HS 578T breast it was greater than 73.2 µM.
Take `CSc1ccc2c(cc1=O)[C@@H](NC(=O)c1ccc(N)cc1)CCc1cc(O)c(O)c(O)c1-2`: the TGI in the assay with HCC-2998 colon was 32.9 µM and 37.3 µM; in the assay on HCT-116 colon, greater than 100 µM; in the assay on NCI/ADR-RES ovarian it was 57.3 µM and 61.6 µM; with HOP-62 NSCLC, 27.8 µM and 34.7 µM; in the assay on MALME-3M melanoma, greater than 100 µM; with SK-MEL-2 melanoma, greater than 100 µM. The TGI in the assay on SNB-19 CNS was 61 µM and > 100 µM; in the assay with EKVX NSCLC, greater than 100 µM; in the assay with SR leukemia it was greater than 100 µM; with TK-10 renal, greater than 100 µM; with HS 578T breast it was > 75 µM and 43.6 µM. For the same molecule, the GI50 is 23.8 µM and 11 µM with HCT-116 colon; 30.9 µM and 11.4 µM with SK-MEL-2 melanoma; 24.2 µM and > 100 µM with TK-10 renal; 24.3 µM and 10.2 µM with HS 578T breast.
For `CSc1ncnc2c1ncn2C1CC(Oc2ccc(C)cc2)C(COc2ccc(C)cc2)O1` (configuration not stated), the TGI with HCC-2998 colon, with HCT-116 colon, in the assay with NCI/ADR-RES ovarian, in the assay on HOP-62 NSCLC, in the assay with MALME-3M melanoma and with SK-MEL-2 melanoma was greater than 100 µM in each case. In addition, the TGI in the assay on SNB-19 CNS, with EKVX NSCLC, with SR leukemia, with TK-10 renal and in the assay with HS 578T breast was greater than 100 µM in each case.
On to `Nc1cc2[nH]c(=O)c(=O)[nH]c2cc1N`, for which the TGI in the assay with HCC-2998 colon, in the assay on HCT-116 colon, in the assay on NCI/ADR-RES ovarian, in the assay with HOP-62 NSCLC, in the assay on MALME-3M melanoma and in the assay on SK-MEL-2 melanoma was greater than 100 µM each time. The TGI in the assay with SNB-19 CNS, with EKVX NSCLC, in the assay with SR leukemia, in the assay with TK-10 renal and in the assay on HS 578T breast was greater than 100 µM in each case.
Turning to `CON(C)C(=O)CNC(=O)OCC1c2ccccc2-c2ccccc21`, the TGI in the assay on HCC-2998 colon, with HCT-116 colon, in the assay with NCI/ADR-RES ovarian, in the assay with HOP-62 NSCLC, with MALME-3M melanoma and in the assay on SK-MEL-2 melanoma was greater than 100 µM throughout. Besides, the TGI in the assay with SNB-19 CNS was greater than 100 µM; in the assay on EKVX NSCLC it was greater than 100 µM; in the assay on SR leukemia it was 69.6 µM; in the assay on TK-10 renal, greater than 100 µM; in the assay on HS 578T breast, greater than 100 µM.
Regarding `CCOC(=O)N/N=C(/N)c1cccc([N+](=O)[O-])c1`, the TGI with HCC-2998 colon, with HCT-116 colon, in the assay on NCI/ADR-RES ovarian, in the assay with HOP-62 NSCLC, in the assay on MALME-3M melanoma and in the assay on SK-MEL-2 melanoma was greater than 100 µM each time. The TGI in the assay with SNB-19 CNS, in the assay with EKVX NSCLC, in the assay with SR leukemia, in the assay with TK-10 renal and with HS 578T breast was greater than 100 µM in each case.
As for `COc1ccc2ccccc2c1/C=C/C(=O)c1ccccc1`, the TGI in the assay on HCC-2998 colon was 3.07 µM; in the assay on HCT-116 colon, 11 µM; in the assay on NCI/ADR-RES ovarian, greater than 54.8 µM; in the assay with HOP-62 NSCLC, 9 µM; in the assay on MALME-3M melanoma, 26.3 µM; in the assay on SK-MEL-2 melanoma, 3.64 µM. Also, the TGI stood at 12.4 µM with SNB-19 CNS; 12.1 µM with EKVX NSCLC; 2.55 µM in the assay on SR leukemia; 7.45 µM in the assay on TK-10 renal; 38.7 µM in the assay with HS 578T breast.
For the molecule `O=C(N/N=C\c1cccc2c([N+](=O)[O-])cccc12)Nc1ccccc1`, the TGI with HCC-2998 colon turned out to be 32 µM; in the assay with HCT-116 colon it was 16.1 µM; in the assay on NCI/ADR-RES ovarian it was 32.3 µM; with HOP-62 NSCLC, 36 µM; in the assay on MALME-3M melanoma, 38 µM; in the assay with SK-MEL-2 melanoma it was 18.2 µM. For the same molecule, the TGI in the assay on SNB-19 CNS is 36.5 µM; in the assay with EKVX NSCLC it was 35.1 µM; in the assay with SR leukemia it was 43.3 µM; with TK-10 renal it was 27.3 µM; in the assay on HS 578T breast, 33.5 µM.
For `CC(C)(C)OC(=O)NC(Cc1ccc(OCc2ccccc2)cn1)C(=O)N1CCCCC1` (configuration not stated), the TGI was greater than 100 µM in the assay on HCC-2998 colon; greater than 100 µM with HCT-116 colon; 59.2 µM in the assay on NCI/ADR-RES ovarian; greater than 100 µM with HOP-62 NSCLC; greater than 100 µM in the assay on MALME-3M melanoma; 58.2 µM in the assay on SK-MEL-2 melanoma. For the same molecule, the TGI is greater than 100 µM in the assay with SNB-19 CNS; greater than 100 µM in the assay with EKVX NSCLC; 93 µM in the assay with SR leukemia; greater than 100 µM in the assay with TK-10 renal; greater than 100 µM in the assay with HS 578T breast.
`C[N+](C)(C)CC1CCCCCCCCCCC1=O` (configuration not stated): the TGI with HCC-2998 colon, in the assay with HCT-116 colon, in the assay on NCI/ADR-RES ovarian, in the assay with HOP-62 NSCLC, with MALME-3M melanoma and in the assay with SK-MEL-2 melanoma was greater than 100 µM each time. The TGI with SNB-19 CNS, in the assay on EKVX NSCLC, in the assay on SR leukemia, with TK-10 renal and with HS 578T breast was greater than 100 µM each time.
For the molecule `CCN(CC)C(=S)N/N=C(/C)c1cccc(/C(C)=N\NC(=S)N(CC)CC)n1`, the TGI came to 23.8 µM in the assay on HCC-2998 colon; 11.4 µM in the assay with HCT-116 colon; 10.5 µM in the assay on NCI/ADR-RES ovarian; 6.76 µM in the assay with HOP-62 NSCLC; 7.41 µM in the assay on MALME-3M melanoma; 20.3 µM with SK-MEL-2 melanoma. Further, the TGI is 18.4 µM with SNB-19 CNS; 12.5 µM in the assay on EKVX NSCLC; 2.4 µM with SR leukemia; 11.7 µM with TK-10 renal; greater than 100 µM in the assay on HS 578T breast.
Turning to `CCN(CC)C(=O)Cn1c(C)cc2ccccc21`, the TGI in the assay on HCC-2998 colon, with HCT-116 colon, in the assay on NCI/ADR-RES ovarian, with HOP-62 NSCLC, with MALME-3M melanoma and with SK-MEL-2 melanoma was greater than 100 µM throughout. The TGI in the assay with SNB-19 CNS, in the assay on EKVX NSCLC, in the assay with SR leukemia, in the assay with TK-10 renal and in the assay on HS 578T breast was greater than 100 µM in each case.
For the molecule `CN1CCC(O)(C(C)(C)C)CC1`, the TGI in the assay on HCC-2998 colon, in the assay on HCT-116 colon, in the assay with NCI/ADR-RES ovarian, in the assay on HOP-62 NSCLC, in the assay on MALME-3M melanoma and in the assay on SK-MEL-2 melanoma was greater than 100 µM each time. For the same molecule, the TGI in the assay with SNB-19 CNS, in the assay with EKVX NSCLC, in the assay with SR leukemia, in the assay with TK-10 renal and with HS 578T breast was greater than 100 µM each time.
Turning to `Oc1ccc(-c2nc(-c3cccnc3)c(-c3ccc(Cl)cc3)[nH]2)cc1`, the TGI in the assay on HCC-2998 colon came to 33.1 µM; in the assay on HCT-116 colon, 31.6 µM; with NCI/ADR-RES ovarian, 36.9 µM; with HOP-62 NSCLC, 30.9 µM; in the assay on MALME-3M melanoma, 26.8 µM; with SK-MEL-2 melanoma, 32.8 µM. Moreover, the TGI is 31.2 µM in the assay with SNB-19 CNS; 27.4 µM in the assay on EKVX NSCLC; 44.1 µM in the assay with SR leukemia; 26.3 µM with TK-10 renal; 56 µM in the assay on HS 578T breast.
Regarding `c1ccc2c(c1)ccn2CCc1c[nH]c2ccccc12`, the TGI with HCC-2998 colon, in the assay with HCT-116 colon, in the assay with NCI/ADR-RES ovarian, with HOP-62 NSCLC, in the assay on MALME-3M melanoma and in the assay with SK-MEL-2 melanoma was greater than 10 µM each time. Moreover, the TGI in the assay on SNB-19 CNS, in the assay with EKVX NSCLC, in the assay with SR leukemia, in the assay on TK-10 renal and in the assay on HS 578T breast was greater than 10 µM each time.
For the molecule `O=C1CC(=Nc2ccc(Cl)cc2)C(c2ccccc2)N1c1ccccc1` (configuration not stated), the TGI in the assay on HCC-2998 colon was greater than 100 µM; in the assay with HCT-116 colon, 65.1 µM; in the assay with NCI/ADR-RES ovarian, 95.8 µM; in the assay on HOP-62 NSCLC it was greater than 100 µM; with MALME-3M melanoma, 90.8 µM; with SK-MEL-2 melanoma, 7.92 µM. Besides, the TGI was greater than 100 µM with SNB-19 CNS; greater than 100 µM in the assay with EKVX NSCLC; 45.5 µM with SR leukemia; greater than 100 µM with TK-10 renal; 26.6 µM in the assay with HS 578T breast.
